This assay concerns A375-NRAS^Q61K cells. The experiment in a line: CTGlo Cell Viability Assay, A375-NRAS^Q61K (A375.11) cells, 96 hours. To be noted: A375.11 (A375-NRAS^Q61K) cells. Type of assay: cell-based, human. The procedure, abridged: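 A375 cells carrying BRAF V600E and NRAS Q61K were seeded at 250 cells/well with a 10-point half-log dose series (max 10 μM final). After 96 h at 37 °C, viability was read as ATP luminescence (CellTiter-Glo), background-subtracted and normalized to DMSO (100%). GI50 from 4-parameter fit; Emax is the lowest % viability.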

[1] abbreviates: Homo sapiens, 96 h, lowest % viability achieved.

`CO[C@H]1CCN(S(=O)(=O)Nc2ccc(F)c(Oc3ccc4ncn(C5CC6(CCN(C7CCC(c8cc9c(cc8F)c(N8CCC(=O)NC8=O)nn9C)CC7)CC6)C5)c(=O)c4c3)c2C#N)C1` (single isomer, unassigned) [Compound 103]: the GI50 is over 10000 nM. For the same molecule, the Emax under setting [1] lay within 50 to 90%.
As to `Cn1nc(N2CCC(=O)NC2=O)c2cc(F)c(N3CC4(CC(N5CCC6(CC5)CC(n5cnc7ccc(Oc8c(F)ccc(NS(=O)(=O)N9C[C@H]%10C[C@H]%10C9)c8C#N)cc7c5=O)C6)C4)C3)cc21` (stereo partly drawn) [Compound 277, (1R,5S)-N-[2-cyano-3-[3-[7-[2-[3-(2,4-dioxohexahydropyrimidin-1-yl)-5-fluoro-1-methyl-indazol-6-yl]-2-azaspiro[3.3]heptan-6-yl]-7-azaspiro[3.5]nonan-2-yl]-4-oxo-quinazolin-6-yl]oxy-4-fluoro-phenyl]-3-azabicyclo[3.1.0]hexane-3-sulfonamide], under “Homo sapiens, 96 h”, the 50% growth inhibitory concentration (GI50) is under 1000 nM. The molecule further had an Emax under setting [1] of 50 to 90%.
Consider `CCN(C)S(=O)(=O)Nc1ccc(F)c(Oc2ccc3ncc([C@@H]4COC5(CCN(C6CCC(c7ccc(NC8CCC(=O)NC8=O)cc7F)CC6)CC5)C4)nc3c2)c1C#N` (single isomer, unassigned) [Compound 60], for which the GI50 was under 1000 nM. The molecule also came in with an Emax under setting [1] of under 50%.
In turn, `CCN(C)S(=O)(=O)Nc1ccc(F)c(Oc2ccc3ncc([C@H]4COC5(CCN(C6CCC(c7cc8c(cc7F)c(N7CCC(=O)NC7=O)nn8C)CC6)CC5)C4)nc3c2)c1C#N` (single isomer, unassigned) [Compound 48] gave a concentration for 50% growth inhibition (GI50) (Homo sapiens, 96 h) of under 1000 nM. Also, the Emax under setting [1] was under 50%.
The corresponding values for `CCN(C)S(=O)(=O)Nc1ccc(F)c(Oc2ccc3ncc([C@H]4COC5(CCN(C6CC7(C6)CN(c6cc8c(cc6F)c(N6CCC(=O)NC6=O)nn8C)C7)CC5)C4)nc3c2)c1C#N` [Compound 158, (3S)-3-[7-[2-cyano-3-[[ethyl(methyl)sulfamoyl]amino]-6-fluoro-phenoxy]quinoxalin-2-yl]-8-[2-[3-(2,4-dioxohexahydropyrimidin-1-yl)-5-fluoro-1-methyl-indazol-6-yl]-2-azaspiro[3.3]heptan-6-yl]-1-oxa-8-azaspiro[4.5]decane] are under 1000 nM and 50 to 90%.
For `CCN(C)S(=O)(=O)Nc1ccc(F)c(Oc2ccc3ncn([C@H]4COC5(CCN(C6CC(c7ccc(NC8CCC(=O)NC8=O)cc7F)C6)CC5)C4)c(=O)c3c2)c1C#N` (single isomer, unassigned) [Compound 62] the same measures were under 1000 nM and under 50%.
In turn, `CCN(C)S(=O)(=O)Nc1ccc(F)c(Oc2ccc3ncn(C4CC5(CCN(C6CC7(C6)CN(c6cc8c(cc6F)c(N6CCC(=O)NC6=O)nn8C)C7)CC5)C4)c(=O)c3c2)c1C#N` (stereo not shown) [Compound 141, 6-[2-cyano-3-[[ethyl(methyl)sulfamoyl]amino]-6-fluoro-phenoxy]-3-[7-[2-[3-(2,4-dioxohexahydropyrimidin-1-yl)-5-fluoro-1-methyl-indazol-6-yl]-2-azaspiro[3.3]heptan-6-yl]-7-azaspiro[3.5]nonan-2-yl]-4-oxo-quinazoline] displayed a GI50 (Homo sapiens, 96 h) of under 1000 nM. Also, the Emax under setting [1] lay in the range of 50 to 90%.
`CN(CCO)S(=O)(=O)Nc1ccc(F)c(Oc2ccc3ncn(C4CC5(CCN(C6CCC(c7cc8c(cc7F)c(N7CCC(=O)NC7=O)nn8C)CC6F)CC5)C4)c(=O)c3c2)c1C#N` (single isomer, unassigned) [Compound 145, 6-[2-cyano-6-fluoro-3-[[2-hydroxyethyl(methyl)sulfamoyl]amino]phenoxy]-3-[7-[4-[3-(2,4-dioxohexahydropyrimidin-1-yl)-5-fluoro-1-methyl-indazol-6-yl]-2-fluoro-cyclohexyl]-7-azaspiro[3.5]nonan-2-yl]-4-oxo-quinazoline] returned a GI50 of 1000 to 10000 nM. This molecule also displayed an Emax under setting [1] of 50 to 90%.
In the case of `CN(CCO)S(=O)(=O)Nc1ccc(F)c(Oc2ccc3ncn(C4CC5(CCN(C6CC7(C6)CN(c6cc8c(cc6F)c(N6CCC(=O)NC6=O)nn8C)C7)CC5)C4)c(=O)c3c2)c1C#N` (stereo not shown) [Compound 151, 6-[2-cyano-6-fluoro-3-[[2-hydroxyethyl(methyl)sulfamoyl]amino]phenoxy]-3-[7-[2-[3-(2,4-dioxohexahydropyrimidin-1-yl)-5-fluoro-1-methyl-indazol-6-yl]-2-azaspiro[3.3]heptan-6-yl]-7-azaspiro[3.5]nonan-2-yl]-4-oxo-quinazoline], the concentration for 50% growth inhibition (GI50) (Homo sapiens, 96 h) was 1000 to 10000 nM. Also, the Emax under setting [1] is over 90%.
Under “Homo sapiens, 96 h”, `Cn1nc(N2CCC(=O)NC2=O)c2cc(F)c(N3CC4(CC(N5CCC6(CC5)CC(n5cnc7ccc(Oc8c(F)ccc(NS(=O)(=O)N9CC[C@@H](F)C9)c8C#N)cc7c5=O)C6)C4)C3)cc21` [Compound 261, (3R)-N-[2-cyano-3-[3-[7-[2-[3-(2,4-dioxohexahydropyrimidin-1-yl)-5-fluoro-1-methyl-indazol-6-yl]-2-azaspiro[3.3]heptan-6-yl]-7-azaspiro[3.5]nonan-2-yl]-4-oxo-quinazolin-6-yl]oxy-4-fluoro-phenyl]-3-fluoro-pyrrolidine-1-sulfonamide] gave a GI50 of under 1000 nM. In addition, the Emax under setting [1] is under 50%.
Where the note is “Homo sapiens, 96 h”, `Cn1nc(N2CCC(=O)NC2=O)c2cc(F)c(N3CC4(CC(N5CCC6(CC5)CC(n5cnc7ccc(Oc8c(F)ccc(NS(=O)(=O)C9CCCC9)c8C#N)cc7c5=O)C6)C4)C3)cc21` [Compound 250, N-[2-cyano-3-[3-[7-[2-[3-(2,4-dioxohexahydropyrimidin-1-yl)-5-fluoro-1-methyl-indazol-6-yl]-2-azaspiro[3.3]heptan-6-yl]-7-azaspiro[3.5]nonan-2-yl]-4-oxo-quinazolin-6-yl]oxy-4-fluoro-phenyl]cyclopentanesulfonamide] had a concentration for 50% growth inhibition (GI50) of under 1000 nM. The Emax under setting [1] is under 50%.
`Cn1nc(N2CCC(=O)NC2=O)c2cc(F)c(C3CCC(N4CCC5(CC4)C[C@@H](n4cnc6ccc(Oc7c(F)ccc(NS(=O)(=O)C8CCCC8)c7C#N)cc6c4=O)CO5)CC3)cc21` (single isomer, unassigned) [Compound 113]: the 50% growth inhibitory concentration (GI50) (Homo sapiens, 96 h) was under 1000 nM. This molecule also yielded an Emax under setting [1] of under 50%.
In turn, `CCN(C)S(=O)(=O)Nc1ccc(F)c(Nc2ccc3ncn([C@H]4COC5(CCN(C6CCC(c7cc8c(cc7F)c(N7CCC(=O)NC7=O)nn8C)CC6)CC5)C4)c(=O)c3c2)c1C#N` (single isomer, unassigned) [Compound 64] had a GI50 of 1000 to 10000 nM. This molecule also came in with an Emax under setting [1] of 50 to 90%.
Turning to `CCN(C)S(=O)(=O)Nc1ccc(F)c(Oc2ccc3ncn([C@H]4COC5(CCN(C6CC(c7cc8c(cc7F)c(N7CCC(=O)NC7=O)nn8C)C6)CC5)C4)c(=O)c3c2)c1C#N` (single isomer, unassigned) [Compound 70], the GI50 (Homo sapiens, 96 h) was under 1000 nM. Besides, the Emax under setting [1] was under 50%.
`COC1CN(S(=O)(=O)Nc2ccc(F)c(Oc3ccc4ncn([C@H]5COC6(CCN(C7CC8(C7)CN(c7cc9c(cc7F)c(N7CCC(=O)NC7=O)nn9C)C8)CC6)C5)c(=O)c4c3)c2C#N)C1` [Compound 246, N-[2-cyano-3-[3-[(3R)-8-[2-[3-(2,4-dioxohexahydropyrimidin-1-yl)-5-fluoro-1-methyl-indazol-6-yl]-2-azaspiro[3.3]heptan-6-yl]-1-oxa-8-azaspiro[4.5]decan-3-yl]-4-oxo-quinazolin-6-yl]oxy-4-fluoro-phenyl]-3-methoxy-azetidine-1-sulfonamide] came in with a concentration for 50% growth inhibition (GI50) (Homo sapiens, 96 h) of under 1000 nM. This molecule also returned an Emax under setting [1] of under 50%.
For `CCN(C)S(=O)(=O)Nc1ccc(F)c(Oc2ccc3ncn(C4CC5(C4)CN(C4CCC(c6cc7c(cc6F)c(N6CCC(=O)NC6=O)nn7C)CC4)C5)c(=O)c3c2)c1C#N` (single isomer, unassigned) [Compound 204, 6-[2-cyano-3-[[ethyl(methyl)sulfamoyl]amino]-6-fluoro-phenoxy]-3-[2-[4-[3-(2,4-dioxohexahydropyrimidin-1-yl)-5-fluoro-1-methyl-indazol-6-yl]cyclohexyl]-2-azaspiro[3.3]heptan-6-yl]-4-oxo-quinazoline], the GI50 was under 1000 nM. For the setting “lowest % viability achieved”, the “CTGlo A375.11 96 hours Emax” value was “** (<90% and >50%)”.
The molecule `Cn1nc(N2CCC(=O)NC2=O)c2cc(F)c(C3CCC(N4CCC5(CC4)C[C@@H](n4cnc6ccc(Oc7c(F)ccc(NS(=O)(=O)N8CC[C@@H](F)C8)c7C#N)cc6c4=O)CO5)CC3)cc21` (single isomer, unassigned) [Compound 121] yielded a GI50 (Homo sapiens, 96 h) of under 1000 nM. Under setting [1], this molecule registered an Emax of under 50%.
The corresponding values for `CCN(C)S(=O)(=O)Nc1ccc(F)c(Oc2ccc3ncc(OCC4CCN(C5CCC(c6cc7c(cc6F)c(N6CCC(=O)NC6=O)nn7C)CC5)CC4)nc3c2)c1C#N` (single isomer, unassigned) [Compound 118, 7-[2-cyano-3-[[ethyl(methyl)sulfamoyl]amino]-6-fluoro-phenoxy]-2-[[1-[4-[3-(2,4-dioxohexahydropyrimidin-1-yl)-5-fluoro-1-methyl-indazol-6-yl]cyclohexyl]-4-piperidyl]methoxy]quinoxaline] are 1000 to 10000 nM and 50 to 90%.
The corresponding values for `Cn1nc(N2CCC(=O)NC2=O)c2cc(F)c(N3CC4(CC(N5CCC6(CC5)C[C@@H](n5cnc7ccc(Oc8c(F)ccc(NS(=O)(=O)N9CC[C@@H](F)C9)c8C#N)cc7c5=O)CO6)C4)C3)cc21` [Compound 133, (3R)-N-[2-cyano-3-[3-[(3R)-8-[2-[3-(2,4-dioxohexahydropyrimidin-1-yl)-5-fluoro-1-methyl-indazol-6-yl]-2-azaspiro[3.3]heptan-6-yl]-1-oxa-8-azaspiro[4.5]decan-3-yl]-4-oxo-quinazolin-6-yl]oxy-4-fluoro-phenyl]-3-fluoro-pyrrolidine-1-sulfonamide] are 1000 to 10000 nM and under 50%.
`CCN(C)S(=O)(=O)Nc1ccc(F)c(Oc2ccc3ncc([C@@H]4COC5(CCN(C6CCC(c7cc8c(cc7F)c(N7CCC(=O)NC7=O)nn8C)CC6)CC5)C4)nc3c2)c1C#N` (single isomer, unassigned) [Compound 54]: for the setting “Homo sapiens, 96 h”, the GI50 was under 1000 nM. Also, the Emax under setting [1] was under 50%.

The values are drawn from patent US20260297060A1, “COMPOUNDS FOR THE DEGRADATION OF MUTANT BRAF” (C4 THERAPEUTICS, INC., priority 2023, published 2026).
